{"source": "ChEMBL document CHEMBL1201862", "about": "“PubChem BioAssay data set” (2004)", "key": {"[1]": {"molecular_target": "T1, Heat shock factor protein 1 (Mus musculus, UniProt P38532)", "T1 sequence (P38532 whole entry)": "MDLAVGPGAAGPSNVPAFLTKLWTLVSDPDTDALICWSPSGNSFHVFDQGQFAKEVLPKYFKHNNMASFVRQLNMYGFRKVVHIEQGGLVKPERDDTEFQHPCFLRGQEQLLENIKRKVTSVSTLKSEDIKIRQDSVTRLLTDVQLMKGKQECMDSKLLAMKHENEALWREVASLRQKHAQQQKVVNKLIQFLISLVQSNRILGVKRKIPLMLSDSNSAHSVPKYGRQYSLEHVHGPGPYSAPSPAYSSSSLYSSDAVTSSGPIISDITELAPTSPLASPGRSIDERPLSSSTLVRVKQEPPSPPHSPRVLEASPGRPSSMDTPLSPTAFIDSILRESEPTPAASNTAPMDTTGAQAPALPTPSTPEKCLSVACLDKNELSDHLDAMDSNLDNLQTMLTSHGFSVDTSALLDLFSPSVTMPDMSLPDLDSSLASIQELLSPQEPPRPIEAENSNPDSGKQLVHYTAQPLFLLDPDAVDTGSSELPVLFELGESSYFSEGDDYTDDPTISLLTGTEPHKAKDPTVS", "test": "inhibition of MG132-induced HSE-luciferase signal, confirmation, cell-based, NIH3T3, luminescence, dose retest (AID 2382);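 also: NIH3T3 fibroblasts with HSF1-driven luciferase reporter stressed by proteasome inhibitor MG132; luminescence from HSF1-driven luciferase expression after 8 hours of MG132 stress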", "format": "functional"}, "Cytochrome P450 2C9": {"molecular_target": "Cytochrome P450 2C9 (Homo sapiens, UniProt P11712)", "sequence (P11712 whole entry)": "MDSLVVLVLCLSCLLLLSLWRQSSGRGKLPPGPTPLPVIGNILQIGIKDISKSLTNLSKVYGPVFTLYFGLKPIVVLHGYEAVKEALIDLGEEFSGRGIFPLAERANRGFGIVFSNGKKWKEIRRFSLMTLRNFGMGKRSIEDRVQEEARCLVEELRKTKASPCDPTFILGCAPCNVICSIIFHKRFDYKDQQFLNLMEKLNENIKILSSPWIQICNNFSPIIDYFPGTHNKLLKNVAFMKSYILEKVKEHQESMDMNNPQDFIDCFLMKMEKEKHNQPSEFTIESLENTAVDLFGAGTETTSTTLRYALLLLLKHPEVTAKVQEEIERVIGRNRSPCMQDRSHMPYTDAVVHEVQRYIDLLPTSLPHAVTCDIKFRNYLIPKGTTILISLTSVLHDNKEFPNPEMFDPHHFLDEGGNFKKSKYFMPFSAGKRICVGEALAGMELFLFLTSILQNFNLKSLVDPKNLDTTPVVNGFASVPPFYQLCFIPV"}, "Cytochrome P450 2C19": {"molecular_target": "Cytochrome P450 2C19 (Homo sapiens, UniProt P33261)", "sequence (P33261 whole entry)": "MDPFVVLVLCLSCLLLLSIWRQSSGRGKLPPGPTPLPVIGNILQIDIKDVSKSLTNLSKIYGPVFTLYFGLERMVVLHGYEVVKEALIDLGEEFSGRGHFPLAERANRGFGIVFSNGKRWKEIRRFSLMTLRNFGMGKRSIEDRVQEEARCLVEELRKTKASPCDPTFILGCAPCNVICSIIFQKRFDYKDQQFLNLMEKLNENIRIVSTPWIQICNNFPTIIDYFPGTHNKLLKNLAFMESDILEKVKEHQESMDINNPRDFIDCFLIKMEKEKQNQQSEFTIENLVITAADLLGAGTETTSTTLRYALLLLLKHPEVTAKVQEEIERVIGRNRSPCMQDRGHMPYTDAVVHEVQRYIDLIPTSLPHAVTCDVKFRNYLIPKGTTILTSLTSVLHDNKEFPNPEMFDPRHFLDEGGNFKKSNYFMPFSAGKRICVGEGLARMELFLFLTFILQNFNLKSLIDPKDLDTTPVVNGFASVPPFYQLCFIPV", "test": "Cytochrome panel assay with activity outcomes. Panel member name: p450-cyp2c19 Compounds with AC50 equal or less than 10 uM are considered active", "format": "functional", "conditions": "read-out: AC50"}, "Cytochrome P450 3A4 [2]": {"molecular_target": "T2, Cytochrome P450 3A4 (Homo sapiens, UniProt P08684)", "T2 sequence (P08684 whole entry)": "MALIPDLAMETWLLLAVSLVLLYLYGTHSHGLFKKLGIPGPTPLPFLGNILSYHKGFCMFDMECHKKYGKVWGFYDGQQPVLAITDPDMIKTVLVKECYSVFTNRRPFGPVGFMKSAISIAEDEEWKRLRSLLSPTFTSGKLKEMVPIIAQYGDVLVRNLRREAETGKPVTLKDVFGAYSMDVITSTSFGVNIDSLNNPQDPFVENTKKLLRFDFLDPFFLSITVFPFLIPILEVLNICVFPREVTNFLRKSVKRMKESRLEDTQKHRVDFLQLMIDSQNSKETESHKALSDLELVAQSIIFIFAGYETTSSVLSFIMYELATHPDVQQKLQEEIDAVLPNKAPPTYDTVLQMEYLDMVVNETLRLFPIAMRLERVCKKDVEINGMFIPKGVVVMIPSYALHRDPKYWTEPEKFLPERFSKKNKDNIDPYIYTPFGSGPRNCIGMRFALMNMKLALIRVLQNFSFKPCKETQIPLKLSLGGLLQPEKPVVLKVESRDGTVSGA"}, "Cytochrome P450 2D6": {"molecular_target": "Cytochrome P450 2D6 (Homo sapiens, UniProt P10635)", "sequence (P10635 whole entry)": "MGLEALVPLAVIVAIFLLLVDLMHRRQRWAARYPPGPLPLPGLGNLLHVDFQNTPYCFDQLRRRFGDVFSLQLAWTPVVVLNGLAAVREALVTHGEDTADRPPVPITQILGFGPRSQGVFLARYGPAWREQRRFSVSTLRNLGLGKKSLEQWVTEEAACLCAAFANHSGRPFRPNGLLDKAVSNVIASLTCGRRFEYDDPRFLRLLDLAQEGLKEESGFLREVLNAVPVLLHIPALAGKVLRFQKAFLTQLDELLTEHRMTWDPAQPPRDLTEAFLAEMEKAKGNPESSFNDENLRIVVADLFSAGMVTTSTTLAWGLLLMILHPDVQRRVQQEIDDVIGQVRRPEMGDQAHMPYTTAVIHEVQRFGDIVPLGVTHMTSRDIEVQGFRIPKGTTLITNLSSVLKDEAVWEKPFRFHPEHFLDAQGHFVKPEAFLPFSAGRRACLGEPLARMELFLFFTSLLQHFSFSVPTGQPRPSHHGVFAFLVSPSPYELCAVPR"}, "[3]": {"test": "Vero E6 cell cytotoxicity, dose response, cytotoxicity control for non-replicating M. tuberculosis project, secondary assay (AID 492998)", "format": "functional, VeroE6", "conditions": "Vero C1008"}, "[4]": {"test": "cytotoxicity toward NIH3T3 fibroblasts, dose response, counter-screen, cell-based, ATP luminescence, mouse fibroblasts (AID 2010);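 also: cells exposed to compound for about 90 hours before reading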", "format": "functional"}, "cells [5]": {"test": "cells", "format": "functional, cell-based"}, "INS1": {"system": "INS1", "test": "beta cell apoptosis inhibitors, cytokine rescue, dose response, luminescence, retest (AID 449756);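 also: cell death triggered by IL-1 beta plus TNF-alpha plus IFN-gamma mixture; protective hits raise ATP signal compared with cytokine alone wells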", "format": "functional, cell-based", "conditions": "Rattus norvegicus"}, "cells [6]": {"test": "cells", "format": "functional, cell-based", "remark": "listed apart in the source"}, "[7]": {"test": "THP-1 cell cytotoxicity, dose response, cytotoxicity control for non-replicating M. tuberculosis project (AID 489025)", "format": "functional"}, "[8]": {"test": "microbe, parasite or virus in culture", "format": "functional", "conditions": "Mycobacterium tuberculosis"}, "cells [9]": {"test": "cells", "format": "functional"}, "[10]": {"test": "inhibitors of intracellular T. cruzi replication, confirmation, NIH3T3 host cells, beta-gal luminescence (AID 2044);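 also: luminescent beta-galactosidase reporter signal from transgenic T. cruzi replicating inside host cells; inhibitors lower the luminescence signal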", "format": "functional, cell-based"}, "Escherichia coli": {"system": "Escherichia coli", "test": "microbe, parasite or virus in culture"}, "[11]": {"molecular_target": "T3, DNA repair protein RAD52 homolog (Homo sapiens, UniProt P43351)", "T3 sequence (P43351 whole entry)": "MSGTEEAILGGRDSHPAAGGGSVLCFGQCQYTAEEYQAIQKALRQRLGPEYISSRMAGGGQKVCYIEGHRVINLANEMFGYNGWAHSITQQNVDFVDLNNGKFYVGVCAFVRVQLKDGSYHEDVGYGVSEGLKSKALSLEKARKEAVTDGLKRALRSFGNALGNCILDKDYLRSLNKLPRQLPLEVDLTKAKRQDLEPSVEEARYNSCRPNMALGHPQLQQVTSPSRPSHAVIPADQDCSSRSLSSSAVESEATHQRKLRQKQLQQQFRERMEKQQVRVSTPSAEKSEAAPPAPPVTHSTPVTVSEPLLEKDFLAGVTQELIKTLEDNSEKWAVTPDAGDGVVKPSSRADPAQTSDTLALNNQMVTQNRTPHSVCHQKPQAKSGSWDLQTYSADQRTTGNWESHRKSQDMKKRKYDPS", "format": "functional, biochemical"}, "[12]": {"test": "growth suppression of PTEN-null colon cells, dose response, cell-based, HCT116 PTEN knockout (AID 1047);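 also: cells exposed to compound for 60 hours before readout; potency for loss of cell viability measured by luminescence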", "format": "functional"}, "[13]": {"test": "growth suppression of beta-catenin-knockout colon cells, dose response, cell-based, HCT116, human colon tumor (AID 1045);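 also: cells exposed to compound for 60 hours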", "format": "functional"}, "[14]": {"test": "inhibitors of firefly luciferase expression or activity, dose response, H4 neuroglioma cells, luminescence (AID 1990)", "format": "functional, cell-based"}, "[15]": {"test": "C. albicans growth with fluconazole, confirmation, fluorescence, retest (AID 2467)", "format": "functional, cell-based"}, "[16]": {"test": "NIH-3T3 fibroblast cytotoxicity, dose response, cytotoxicity control, cell-based, fluorescence, Alamar Blue, secondary assay (AID 2327);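 also: NIH-3T3 mouse fibroblasts cultured with fluconazole at 8 µg/mL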", "format": "functional"}, "[17]": {"test": "Luminescence Cell-Based Dose Response HTS to Identify Inhibitors of 5'UTR Stem-Loop Driven Prion Protein mRNA Translation in H4 Neuroglioblastoma Cells. [Related pubchem assays: 1827 (Project Summary), 1813 (Primary HTS)]", "format": "functional"}, "[18]": {"test": "inhibitors of SNCA 5'UTR-driven reporter translation, confirmation, H4 neuroglioma cells, luminescence (AID 1988)", "format": "functional, cell-based"}, "[19]": {"test": "THP-1 cell cytotoxicity, dose response, cytotoxicity control for Vif-APOBEC3G degradation inhibitor project, THP-1 cells (AID 1117359)", "format": "functional", "conditions": "Human immunodeficiency virus 1, THP-1"}, "Cytochrome P450 3A4 [20]": {"molecular_target": "T2, Cytochrome P450 3A4", "conditions": "Potency"}, "[21]": {"test": "cytotoxicity in HEK-293T cells, dose response, cytotoxicity control for TCR NF-kB inhibitor project, luminescence, T-cell screen hits (AID 489026);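 also: cells exposed to compound about 14 hours before the viability readout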", "format": "functional, cell-based"}, "[22]": {"test": "HepG2 cell cytotoxicity, dose response, cytotoxicity control for Shn3 inhibitor project, CellTiter-Glo, cherry-picked (AID 624134)", "format": "functional, cell-based"}, "[23]": {"test": "Shn3 3'UTR reporter inhibitors, dose response, cell-based, Clone20 osteoblasts, firefly luciferase, cherry-picked (AID 624132)", "format": "functional"}, "[24]": {"test": "control 3'UTR Renilla luciferase suppression, dose response, counter-screen for Shn3 inhibitor project, cell-based, Clone20-Shn3RL, cherry-picked (AID 624133)", "format": "functional"}}, "note": "The source made the active and inactive calls.", "data": [{"smiles": "CCC(C)(NC(=O)c1ccccn1)C(=O)NC1CCCCC1", "note": "(stereo unspecified)", "values": [{"measurement": "EC50", "setting": "[1]", "result": "> 195 µM (not active)"}, {"measurement": "AC50", "setting": "Cytochrome P450 2C9", "result": "17.8 µM (inconclusive)"}, {"measurement": "AC50", "setting": "Cytochrome P450 2C19", "result": "10 µM (inconclusive)"}, {"measurement": "AC50", "setting": "Cytochrome P450 3A4 [2]", "result": "inconclusive"}]}, {"smiles": "O=C(c1cccc(F)c1)N1CCC2(CC1)CCN(c1ccc(-c3ccccc3)cc1)CC2", "values": [{"measurement": "AC50", "setting": "Cytochrome P450 2D6", "result": "10 µM (inconclusive)"}, {"measurement": "AC50", "setting": "Cytochrome P450 3A4 [2]", "result": "inconclusive"}]}, {"smiles": "c1ccc(CSc2ccc(-c3ccccn3)nn2)cc1", "values": [{"measurement": "CC50", "setting": "[3]", "result": "12 µM (active)"}, {"measurement": "EC50", "setting": "[4]", "result": "> 30 µM (not active)"}, {"measurement": "EC50", "setting": "cells [5]", "result": "28.4 µM (active)"}, {"measurement": "AC50", "setting": "INS1", "result": "5.5 µM (active)"}, {"measurement": "EC50", "setting": "cells [6]", "result": "85.6 µM (active)"}, {"measurement": "CC50", "setting": "[7]", "result": "14.2 µM (active)"}, {"measurement": "CC50", "setting": "[8]", "result": "36.9 µM (active)"}, {"measurement": "IC50", "setting": "cells [9]", "result": "15.1 µM (active)"}, {"measurement": "EC50", "setting": "[10]", "result": "1.99 µM (active)"}]}, {"smiles": "O=C(c1ccco1)N1CCC2(CC1)CN(c1ccccc1)C2", "values": [{"measurement": "AC50", "setting": "Cytochrome P450 2C9", "result": "25.1 µM (inconclusive)"}, {"measurement": "AC50", "setting": "Cytochrome P450 3A4 [2]", "result": "inconclusive"}]}, {"smiles": "COc1ccc(CCN2C(=O)CC(NNC(=O)c3ccc(F)cc3)C2=O)cc1OC", "note": "(stereo unspecified)", "values": [{"measurement": "AC50", "setting": "Escherichia coli", "result": "20.9 µM (active)"}]}, {"smiles": "CN(C)CCCN(C(=O)c1ccc2c(c1)CCCC2)c1nc2c(F)cccc2s1", "values": [{"measurement": "EC50", "setting": "[4]", "result": "> 60 µM (not active)"}, {"measurement": "AC50", "setting": "[11]", "result": "35.2 µM (active)"}, {"measurement": "EC50", "setting": "[12]", "result": "27 µM (active)"}, {"measurement": "EC50", "setting": "[10]", "result": "0.164 µM (active)"}, {"measurement": "EC50", "setting": "[13]", "result": "30 µM (active)"}]}, {"smiles": "Cn1c(=O)c(-c2cc(F)cc(F)c2)nc2cnc(Oc3ccccc3)nc21", "values": [{"measurement": "AC50", "setting": "Cytochrome P450 2C9", "result": "20 µM (inconclusive)"}, {"measurement": "AC50", "setting": "Cytochrome P450 3A4 [2]", "result": "inconclusive"}]}, {"smiles": "O=C(CCNc1ccc(F)cc1)c1ccco1", "values": [{"measurement": "CC50", "setting": "[3]", "result": "17.9 µM (active)"}, {"measurement": "CC50", "setting": "[7]", "result": "> 40 µM (active)"}, {"measurement": "IC50", "setting": "cells [9]", "result": "13.6 µM (active)"}]}, {"smiles": "COc1ccc(-c2nc(CN3CCN(c4cc(C)nc(C)c4)CC3)c(C)o2)c2ccccc12", "values": [{"measurement": "EC50", "setting": "[14]", "result": "20.9 µM (active)"}, {"measurement": "EC50", "setting": "[15]", "result": "3.22 µM (active)"}, {"measurement": "AC50", "setting": "[11]", "result": "7 µM (active)"}, {"measurement": "CC50", "setting": "[8]", "result": "11.5 µM (active)"}, {"measurement": "EC50", "setting": "[16]", "result": "> 160 µM (inactive)"}, {"measurement": "EC50", "setting": "[17]", "result": "> 120 µM (not active)"}, {"measurement": "EC50", "setting": "[18]", "result": "10.7 µM (active)"}]}, {"smiles": "CCOc1ccc(C(=O)CCN2CCCCCC2)cc1", "values": [{"measurement": "CC50", "setting": "[3]", "result": "> 20 µM (active)"}, {"measurement": "CC50", "setting": "[7]", "result": "> 40 µM (active)"}, {"measurement": "CC50", "setting": "[8]", "result": "> 40 µM (active)"}, {"measurement": "IC50", "setting": "cells [9]", "result": "17.2 µM (active)"}]}, {"smiles": "COc1ccccc1CNCC(=O)Nc1ccc(N2CCOCC2)cc1", "values": [{"measurement": "CC50", "setting": "[19]", "result": "30.7 µM (active)"}]}, {"smiles": "CCCn1c(C)nc2c(NC3CCN(Cc4ccccc4)C3)nc(C)nc21", "note": "(stereo unspecified)", "values": [{"measurement": "AC50", "setting": "Cytochrome P450 3A4 [20]", "result": "15.8 µM (inconclusive)"}]}, {"smiles": "Clc1ccc(CSc2nncn2-c2ccc3c(c2)OCCO3)cc1", "values": [{"measurement": "EC50", "setting": "[14]", "result": "> 120 µM (not active)"}, {"measurement": "EC50", "setting": "[17]", "result": "> 120 µM (not active)"}, {"measurement": "EC50", "setting": "[18]", "result": "> 120 µM (not active)"}, {"measurement": "IC50", "setting": "[21]", "result": "> 80 µM (inactive)"}]}, {"smiles": "O=C(CN1C(=O)NC2(CCCCC2)C1=O)NCc1cccs1", "values": [{"measurement": "AC50", "setting": "Escherichia coli", "result": "34.2 µM (active)"}]}, {"smiles": "O=C(NNc1ccnc2cc(Cl)ccc12)C1CCCCC1", "values": [{"measurement": "AC50", "setting": "INS1", "result": "1.42 µM (active)"}, {"measurement": "AC50", "setting": "[22]", "result": "0.409 µM (active)"}, {"measurement": "AC50", "setting": "[23]", "result": "< 0.26 µM (active)"}, {"measurement": "AC50", "setting": "[24]", "result": "1.39 µM (active)"}, {"measurement": "IC50", "setting": "[21]", "result": "> 80 µM (inactive)"}]}]}
